Assay results published in patent publication US9128100B2, “Non-invasive diagnostic method for the evaluation of intestinal lactase deficiency (hypolactasia)” (Venter Pharma, S.L., priority 2012, dated 2015).
Values joined by “and” are separate entries in the source; they are usually repeats but may differ in a detail not shown here. Equal entries are not always repeated. “Also recorded” adds a separate entry of the source.

How the values were obtained:
[1] = target: T1, intestinal lactase (Homo sapiens, UniProt P09848); test: Plasma xylose concentration after single oral doses of 4-GX in healthy volunteers; assay type: in vivo; settings: for AUC 0-t: area under the curve of plasma xylose concentration against time: mean
T1 construct: after its oral administration it is hydrolysed by the intestinal mucosa enzyme; from tissue; host or cells: small-intestinal mucosa (enterocyte brush border) of living human volunteers and patients, in vivo
Description: (§1) Two groups of subjects were selected. […] Firstly, the lowest suitable oral dose of 4-GX administered to healthy volunteers was determined that enabled reliable detection (in terms of accuracy and reproducibility) of xylose levels in urine and blood via the analytical method to be used. In addition, the tolerance of these subjects to the various doses of 4-GX used in the test and the pharmacokinetics for each dose administered were analysed, both in urine and blood. The doses of 4-GX used were: 0.125 g, 0.250 g, 0.5 g, 1 g, 3 g and 6 g in addition to placebo in 12 healthy volunteers with washout period between doses of between three and seven days. It should be appreciated that the 4-GX doses can include small quantities of water which remain subsequent to the drying process of the 4-GX product. For example, the 4-GX product can contain about 8 wt % to about 12 wt %, most likely about 10 wt % water, based on the total weight of the product. Accordingly, the aforementioned 4-GX doses administered would actually include 0.1125 g, 0.225 g, 0.45 g, 0.9 g, 2.7 g and 5.4 g of actual 4-GX product, respectively, if they contain 10 wt % water. The study was performed with seven treatment periods and a washout time between the various periods of at least 3 days. In each study period, an ascending dose of 4-GX was administered and the serum and urine concentrations of xylose were measured at various times up to 8 hours following the administration of the drug.
The main measured variable was the quantity of xylose in urine collected following oral administration of 4-GX at the following times: basal, 0-1 h, 1-2 h, 2-3 h, 3-4 h, 4-5 h, 5-6 h, 6-7 h and 7-8 h. Secondary variables quantified were the plasma concentration of xylose measured in blood samples extracted following the oral administration of 4-GX at the following times: basal, 30 min, 60 min, 90 min, 120 min, 150 min, 3 h, 4 h, 5 h, 6 h, 7 h and 8 h. A pharmacokinetic analysis was also performed using the values of AUC (area under the curve of variation in the plasma xylose concentration against time), Cmax (maximum xylose plasma concentration), Tmax (time at which maximum xylose plasma concentration was reached) and T1/2 (elimination half-life), calculated from the plasma concentrations of xylose derived from the hydrolysis of 4-GX by intestinal lactase.
The next objective was the determination and pharmacokinetic analysis of the xylose concentration in plasma in order to identify the smallest dose of 4-GX that could be distinguished from placebo (without 4-GX administration) to be used in the 4-GX test for the diagnosis of intestinal lactase deficiency (Table 3).

[2] = target: T1, intestinal lactase; test: 4-GX test in 90-minutes blood, patients with symptoms suggestive of lactose intolerance; assay type: in vivo
Description: (§2) The diagnostic tests to which these patients were subjected were: • Intestinal biopsy: determining intestinal lactase activity therein. • Hydrogen breath test after the oral administration to patients of 50 g of lactose. While this test was being carried out, several capillary-blood glucose test (Glycemia tests) were carried out, calculating the highest increase observed in the blood glucose concentration compared to basal glucose level before starting the test. • 4-GX test in total urine at 0-4 and 0-5 hours, which was orally administered to patients 0.5 g of this product (or 0.45 g in a 4-GX sample including 10 wt % water), collecting the total urine accumulated over 0-4 h and 0-5 h following the administration of 4-GX and determining the amount of excreted xylose in both volumes of urine. • 4-GX test in blood which was orally administered to patients 3 g of this product (or 2.7 g in a 4-GX sample including 10 wt % water) to determine the concentration of plasma xylose in a blood sample 90 minutes after ingestion of the product. The concentration obtained was compared to a basal blood sample extracted before ingestion of 4-GX.
The 4-GX was orally administered in a single dose dissolved in 100 ml of water.
The blood samples were centrifuged to obtain plasma in which the analysis of the amount of xylose present was performed.
From the data obtained from the various urine tests for intestinal lactase deficiency following oral ingestion of 4-GX described in the present invention, a descriptive statistical analysis was performed of the amount of xylose excreted in the urine up to 4 hours and up to 5 hours following said administration. The same was done with the blodd test for intestinal lactase activity following oral ingestion of 4-GX, where descriptive statistical analysis was performed on the amount of xylose present in the plasma of subjects at 90 minutes following administration of 4-GX. The net increase in the plasma xylose concentration compared to basal values was also calculated.
To obtain the statistical parameters of lactase determination using the various 4-GX tests described in the present invention and later to compare them with the results obtained from the intestinal biopsy test, hydrogen in exhaled air test and capillary-blood glucose test, the normal limits of the measurement of the total amount of xylose excreted in 4-hour and 5-hour urine and the concentration of blood xylose after 90 minutes following ingestion of 4-GX described in Table 5 were used. The normal limits for the other tests were those used in common clinical practice for the diagnosis of lactose intolerance (Arola, H. (1994) Diagnosis of hypolactasia and lactose malabsorption. Scand. J. Gastroenterol. […] (Suppl), 26-35), which are:
For the measurement of lactase by intestinal biopsy, the lower normal limit is established at 10 units/g protein, with values less than this being considered positive.

[3] = target: T1, intestinal lactase; test: The three 4-GX tests (4-hour urine, 5-hour urine, blood) taken together; assay type: in vivo; settings: all 4-GX tests; after correcting biopsy diagnosis
Description: as §2
The 4-GX was orally administered in a single dose dissolved in 100 ml of water. […]

[4] = Safety and tolerance of the 4-GX doses; assay type: in vivo, human; settings: all doses of 4-GX used (0.125 g to 6 g oral)
Description: as §1, with “The study was performed with seven treatment periods and a washout time between the various periods of at least 3 days.” left out

[5] = 3 g 4-GX, 90-min blood, lactase in intestinal biopsy as gold standard
[6] = 3 g 4-GX, plasma at 90 min, cut-off 0.97 mg/dL, 205 patients
[7] = blood, after correcting biopsy diagnosis
[8] = blood, after correction of the biopsy diagnostic result (five discrepancies)
[9] = blood, after correction of the biopsy diagnostic result (four discrepancies)
[10] = blood, final criteria of Table 9

T1 sequence (P09848 869-1927): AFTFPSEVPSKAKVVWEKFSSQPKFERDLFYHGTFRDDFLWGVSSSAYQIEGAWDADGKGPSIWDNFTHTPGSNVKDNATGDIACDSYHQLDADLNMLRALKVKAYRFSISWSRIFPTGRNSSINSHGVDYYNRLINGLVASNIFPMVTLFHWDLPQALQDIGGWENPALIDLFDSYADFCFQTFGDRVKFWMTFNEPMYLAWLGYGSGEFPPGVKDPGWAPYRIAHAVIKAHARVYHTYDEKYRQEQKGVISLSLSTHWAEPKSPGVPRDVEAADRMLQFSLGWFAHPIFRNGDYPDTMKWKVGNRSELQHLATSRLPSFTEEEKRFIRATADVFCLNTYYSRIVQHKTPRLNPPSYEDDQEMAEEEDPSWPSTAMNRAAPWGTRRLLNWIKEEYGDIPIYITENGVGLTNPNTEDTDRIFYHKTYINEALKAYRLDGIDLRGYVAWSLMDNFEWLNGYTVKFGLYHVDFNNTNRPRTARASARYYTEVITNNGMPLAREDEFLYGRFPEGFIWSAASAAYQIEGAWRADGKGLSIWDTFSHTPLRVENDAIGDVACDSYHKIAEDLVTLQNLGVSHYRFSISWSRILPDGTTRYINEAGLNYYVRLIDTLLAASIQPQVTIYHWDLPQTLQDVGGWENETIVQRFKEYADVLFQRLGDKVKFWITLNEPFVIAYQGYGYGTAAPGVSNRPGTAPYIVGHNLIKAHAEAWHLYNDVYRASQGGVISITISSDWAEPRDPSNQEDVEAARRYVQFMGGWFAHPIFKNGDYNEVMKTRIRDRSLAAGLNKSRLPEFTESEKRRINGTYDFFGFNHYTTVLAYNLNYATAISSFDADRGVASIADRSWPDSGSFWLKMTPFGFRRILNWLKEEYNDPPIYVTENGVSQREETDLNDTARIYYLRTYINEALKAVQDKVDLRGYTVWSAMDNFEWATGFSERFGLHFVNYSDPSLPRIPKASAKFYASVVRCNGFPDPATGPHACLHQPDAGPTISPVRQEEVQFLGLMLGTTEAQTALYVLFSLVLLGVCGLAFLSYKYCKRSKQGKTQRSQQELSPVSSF

For `O=C[C@H](O)[C@@H](O)[C@@H](CO)O[C@@H]1O[C@H](CO)[C@H](O)[C@H](O)[C@H]1O` [4-GX, 4-O-β-galactopyranosyl-D-xylose], which “AUC 0-t: area under the curve of plasma xylose concentration against time” value (“AUC 0-t: area under the curve” below) ([1]; 4-GX 0.125 g oral) is on record?
The value was 32.49 mg/dL/h.

And the “AUC 0-t: area under the curve” value ([1]; 4-GX 0.250 g oral)?
The value was 34.25 mg/dL/h.

What about the “AUC 0-t: area under the curve” value ([1]; 4-GX 0.5 g oral) of the same compound?
The value was 35.53 mg/dL/h.

What about the “AUC 0-t: area under the curve” value ([1]; 4-GX 1 g oral) of the same compound?
Its value is 36.60 mg/dL/h.

And the “AUC 0-t: area under the curve” value ([1]; 4-GX 3 g oral)?
The value was 39.24 mg/dL/h.

What about the “AUC 0-t: area under the curve” value ([1]; 4-GX 6 g oral) of the same compound?
The value was 41.39 mg/dL/h.

And the “lowest dose of 4-GX for which plasma xylose differs significantly from placebo” value ([1]; healthy volunteers)?
The value was 3 g.

What about the Negative predictive value [2, 5] of the same compound?
The Negative predictive value was 91.8% and 91.75%.

And the Positive predictive value [2, 5]?
The Positive predictive value was 93.4%.

What about the Sensitivity [2, 5] of the same compound?
Its Sensitivity is 92.5% and 92.52%.

And the Specificity [2, 5]?
Its Specificity is 92.7% and 92.71%.

What about the “No. Negative” value [2, 6] of the same compound?
Its value is 97.

And the “No. Positive (patients presenting intestinal lactase deficiency)” value [2, 6]?
Its value is 106.

And the “Percentage of patients negative” value [2, 6]?
The value was 48%.

And the “Percentage of patients positive” value [2, 6]?
The value was 51.7% and 52%.

What about the “sensitivity calculated using the ROC curves” value ([2]; blood samples) of the same compound?
The value was 92.5%.

And the “specificity calculated using the ROC curves” value ([2]; blood samples)?
Its value is 92.7%.

What about the “range of recalculated sensitivity, specificity, positive and negative predictive values” ([2]; blood test, after correcting biopsy diagnosis) of the same compound?
The value was 97.94-98.11.

What about the false negatives [2, 7] of the same compound?
The false negatives was 1.89%.

What about the negative likelihood ratio [2, 7] of the same compound?
The negative likelihood ratio was 0.019.

What about the positive likelihood ratio [2, 7] of the same compound?
Its positive likelihood ratio is 47.585.

And the Negative predictive value [2, 8]?
The Negative predictive value was 97.94%.

And the Positive predictive value [2, 8]?
Its Positive predictive value is 98.11%.

And the Sensitivity [2, 8]?
The Sensitivity was 98.11%.

What about the Specificity [2, 8] of the same compound?
Its Specificity is 97.94%.

And the Negative predictive value [2, 9]?
Its Negative predictive value is 98.97%.

What about the Positive predictive value [2, 9] of the same compound?
The Positive predictive value was 99.06%.

What about the Sensitivity [2, 9] of the same compound?
The Sensitivity was 99.06%.

And the Specificity [2, 9]?
Its Specificity is 98.97%.

What about the “area under the ROC curve” value ([2]; blood, biopsy as gold standard) of the same compound?
The value was 0.9268.

What about the false negatives ([2]; blood, biopsy as gold standard) of the same compound?
Its false negatives is 7.5%.

And the false positives ([2]; blood, biopsy as gold standard)?
The false positives was 7.3%.

And the “concordant positive results, percentage” value [2, 10]?
The value was 97.2%.

And the “final number of concordant positive results” value [2, 10]?
Its value is 104.

And the “negative results (concordant), percentage” value [2, 10]?
Its value is 96.9%.

And the “number of negative results (concordant)” value [2, 10]?
The value was 95.

And the “recalculated values for sensitivity, specificity, positive and negative predictive values” [3]?
The value was “above 95%”.

And the “adverse reactions, safety and tolerance” value [4]?
Its value is “safe and innocuous; also recorded: no clinically significant adverse reactions were found”.
